Data taken from ChEMBL document CHEMBL1138924, “Crystal structure, spectroscopic, and biological study of the copper(II) complex with third-generation quinolone antibiotic sparfloxacin” (2006).
≈ marks a conversion by molar mass, not a printed value.

What was measured:
Assay type in all cases: functional
Staphylococcus aureus = experiment: Antimicrobial activity against Staphylococcus aureus
Escherichia coli = experiment: Antimicrobial activity against Escherichia coli
Pseudomonas aeruginosa = experiment: Antimicrobial activity against Pseudomonas aeruginosa

SMILES: C[C@@H]1CN(c2c(F)c(N)c3c(=O)c(C(=O)O)cn(C4CC4)c3c2F)C[C@H](C)N1 [SPARFLOXACIN]
- MIC (Staphylococcus aureus): 0.5 µg/mL (≈ 1.27 µM)
- MIC (Escherichia coli): 8 µg/mL (≈ 20.4 µM)
- MIC (Pseudomonas aeruginosa): 0.25 µg/mL (≈ 0.637 µM)
